Assay results taken from ChEMBL document CHEMBL3046835, “Insecticidal activity influence of beta-cypermethrin on the pathogenicity of Beauveria bassiana against Aleurodicus disperses” (Crop Prot, 2013).
Values after ≈ are worked out from the molar mass of the structure shown.

What was measured:
Aleurodicus dispersus [1] = test: Insecticidal activity against third-instar nymph stage of Aleurodicus dispersus in guava plant leaves assessed as mortality at 4 mg/L applied via hand sprayer measured after 6 days under field conditions (reference value: 3.5%); format: functional; conditions: 144 h
Aleurodicus dispersus [2] = test: Insecticidal activity against third-instar nymph stage of Aleurodicus dispersus in guava leaves assessed as mortality treated for 15 s measured at 27 +/-2 degC after 24 hr; format: functional
Aleurodicus dispersus [3] = test: Insecticidal activity against third-instar nymph stage of Aleurodicus dispersus in guava plant leaves assessed as mortality at 8 mg/L applied via hand sprayer measured after 9 days under field conditions (reference value: 4%); format: functional; conditions: 216 h
Aleurodicus dispersus [4] = test: Insecticidal activity against third-instar nymph stage of Aleurodicus dispersus in guava plant leaves assessed as mortality at 8 mg/L applied via hand sprayer measured after 6 days in presence of 10^8 Beauveria bassiana conidial suspension under field conditions (reference value: 26.9 +/-3.04%); format: functional; conditions: 144 h
Aleurodicus dispersus [5] = test: Insecticidal activity against third-instar nymph stage of Aleurodicus dispersus in guava plant leaves assessed as mortality at 2 mg/L applied via hand sprayer measured after 9 days in presence of 10^8 Beauveria bassiana conidial suspension under field conditions (reference value: 42.3 +/-3.58%); format: functional; conditions: 216 h
Aleurodicus dispersus [6] = test: Insecticidal activity against third-instar nymph stage of Aleurodicus dispersus in guava leaves assessed as mortality at 2.5 mg/l treated for 15 s measured at 27 +/-2 degC after 48 hr (reference value: 3%); format: functional
Aleurodicus dispersus [7] = test: Insecticidal activity against third-instar nymph stage of Aleurodicus dispersus in guava leaves assessed as mortality at 2.5 mg/l treated for 15 s measured at 27 +/-2 degC after 24 hr (reference value: 2%); format: functional
Aleurodicus dispersus [8] = test: Insecticidal activity against third-instar nymph stage of Aleurodicus dispersus in guava plant leaves assessed as mortality at 8 mg/l measured after 9 days under laboratory conditions (reference value: 3%); format: functional; conditions: 216 h
Aleurodicus dispersus [9] = test: Insecticidal activity against third-instar nymph stage of Aleurodicus dispersus in guava plant leaves assessed as mortality at 4 mg/l measured after 9 days in presence of 10^8 Beauveria bassiana conidial suspension under laboratory conditions (reference value: 45.7 +/-3.18%); format: functional; conditions: 216 h
Beauveria bassiana [10] = test: Effect on Beauveria bassiana Bb-N1 conidial germination at 2 mg/L measured at 27 +/-2 degC after 24 hr (reference value: 94.85 +/-2.13%); format: ADME, organism-based; conditions: in vivo
Aleurodicus dispersus [11] = test: Insecticidal activity against third-instar nymph stage of Aleurodicus dispersus in guava plant leaves assessed as mortality at 4 mg/L applied via hand sprayer measured after 9 days under field conditions (reference value: 4%); format: functional; conditions: 216 h
Beauveria bassiana [12] = test: Inhibition of Beauveria bassiana Bb-N1 mycelial growth at 2 mg/L measured at 27 +/-2 degC after 10 days (reference value: 2.4 +/-0.19%); format: organism-based; design: scale not given: the % may be the effect or the level left; conditions: in vivo, 240 h
Aleurodicus dispersus [13] = test: Insecticidal activity against third-instar nymph stage of Aleurodicus dispersus in guava plant leaves assessed as mortality at 2 mg/l measured after 9 days in presence of 10^8 Beauveria bassiana conidial suspension under laboratory conditions (reference value: 45.7 +/-3.18%); format: functional; conditions: 216 h
Aleurodicus dispersus [14] = test: Insecticidal activity against third-instar nymph stage of Aleurodicus dispersus in guava plant leaves assessed as mortality at 8 mg/l measured after 6 days in presence of 10^8 Beauveria bassiana conidial suspension under laboratory conditions (reference value: 32.8 +/-2.39%); format: functional; conditions: 144 h
Aleurodicus dispersus [15] = test: Insecticidal activity against third-instar nymph stage of Aleurodicus dispersus in guava plant leaves assessed as mortality at 2 mg/l measured after 9 days under laboratory conditions (reference value: 3%); format: functional; conditions: 216 h
Aleurodicus dispersus [16] = test: Insecticidal activity against third-instar nymph stage of Aleurodicus dispersus in guava plant leaves assessed as mortality at 4 mg/L applied via hand sprayer measured after 6 days in presence of 10^8 Beauveria bassiana conidial suspension under field conditions (reference value: 26.9 +/-3.04%); format: functional; conditions: 144 h
Aleurodicus dispersus [17] = test: Insecticidal activity against third-instar nymph stage of Aleurodicus dispersus in guava plant leaves assessed as mortality at 8 mg/L applied via hand sprayer measured after 3 days in presence of 10^8 Beauveria bassiana conidial suspension under field conditions (reference value: 22.2 +/-3.15%); format: functional; conditions: 72 h
Aleurodicus dispersus [18] = test: Insecticidal activity against third-instar nymph stage of Aleurodicus dispersus in guava plant leaves assessed as mortality at 4 mg/L applied via hand sprayer measured after 3 days in presence of 10^8 Beauveria bassiana conidial suspension under field conditions (reference value: 22.2 +/-3.15%); format: functional; conditions: 72 h
Aleurodicus dispersus [19] = test: Insecticidal activity against third-instar nymph stage of Aleurodicus dispersus in guava plant leaves assessed as mortality at 8 mg/L applied via hand sprayer measured after 3 days under field conditions (reference value: 3%); format: functional; conditions: 72 h
Aleurodicus dispersus [20] = test: Insecticidal activity against third-instar nymph stage of Aleurodicus dispersus in guava plant leaves assessed as mortality at 2 mg/L applied via hand sprayer measured after 6 days in presence of 10^8 Beauveria bassiana conidial suspension under field conditions (reference value: 26.9 +/-3.04%); format: functional; conditions: 144 h
Aleurodicus dispersus [21] = test: Insecticidal activity against third-instar nymph stage of Aleurodicus dispersus in guava leaves assessed as mortality at 10 mg/l treated for 15 s measured at 27 +/-2 degC after 48 hr (reference value: 3%); format: functional
Aleurodicus dispersus [22] = test: Insecticidal activity against third-instar nymph stage of Aleurodicus dispersus in guava plant leaves assessed as mortality at 4 mg/l measured after 9 days under laboratory conditions (reference value: 3%); format: functional; conditions: 216 h
Aleurodicus dispersus [23] = test: Insecticidal activity against third-instar nymph stage of Aleurodicus dispersus in guava plant leaves assessed as mortality at 2 mg/L applied via hand sprayer measured after 3 days under field conditions (reference value: 3%); format: functional; conditions: 72 h
Aleurodicus dispersus [24] = test: Insecticidal activity against third-instar nymph stage of Aleurodicus dispersus in guava plant leaves assessed as mortality at 4 mg/l measured after 3 days under laboratory conditions (reference value: 2%); format: functional; conditions: 72 h
Beauveria bassiana [25] = test: Inhibition of Beauveria bassiana Bb-N1 mycelial growth at 4 mg/L measured at 27 +/-2 degC after 10 days (reference value: 2.4 +/-0.19%); format: organism-based; design: scale not given: the % may be the effect or the level left; conditions: in vivo, 240 h
Aleurodicus dispersus [26] = test: Insecticidal activity against third-instar nymph stage of Aleurodicus dispersus in guava plant leaves assessed as mortality at 8 mg/l measured after 9 days in presence of 10^8 Beauveria bassiana conidial suspension under laboratory conditions (reference value: 45.7 +/-3.18%); format: functional; conditions: 216 h
Aleurodicus dispersus [27] = test: Insecticidal activity against third-instar nymph stage of Aleurodicus dispersus in guava plant leaves assessed as mortality at 8 mg/L applied via hand sprayer measured after 9 days in presence of 10^8 Beauveria bassiana conidial suspension under field conditions (reference value: 42.3 +/-3.58%); format: functional; conditions: 216 h
Aleurodicus dispersus [28] = test: Insecticidal activity against third-instar nymph stage of Aleurodicus dispersus in guava leaves assessed as mortality at 40 mg/l treated for 15 s measured at 27 +/-2 degC after 48 hr (reference value: 3%); format: functional

`CC1(C)[C@H](C=C(Cl)Cl)[C@H]1C(=O)O[C@@H](C#N)c1cccc(Oc2ccccc2)c1` [BETA-CYPERMETHRIN] was tested, and the mortality at 4 µg/mL (Aleurodicus dispersus [1]) was 26.7%, the LC95 (Aleurodicus dispersus [2]) was 1551.51 µg/mL (≈ 3730 µM) and the LC50 (Aleurodicus dispersus [2]; Aleurodicus dispersus, Nymph stage, 24 h) was 50 µg/mL (≈ 120 µM). It also gave a mortality at 8 µg/mL (Aleurodicus dispersus [3]) of 29.4%, a mortality at 8 µg/mL (Aleurodicus dispersus [4]) of 62.2% and a mortality at 2 µg/mL (Aleurodicus dispersus [5]) of 54.2%. The mortality at 2.5 µg/mL (Aleurodicus dispersus [6]) was 25.2%, the mortality at 2.5 µg/mL (Aleurodicus dispersus [7]) was 9.1% and the mortality at 8 µg/mL (Aleurodicus dispersus [8]) was 39.3%. For the same compound, the mortality at 4 µg/mL (Aleurodicus dispersus [9]) was 77.6%, the germination rate (Beauveria bassiana [10]) was 93.78% and the mortality at 4 µg/mL (Aleurodicus dispersus [11]) was 26.7%. For the same compound, the Activity (Beauveria bassiana [12]) was 2.7%, the mortality at 2 µg/mL (Aleurodicus dispersus [13]) was 75.3% and the mortality at 8 µg/mL (Aleurodicus dispersus [14]) was 80.6%. It also gave a mortality at 2 µg/mL (Aleurodicus dispersus [15]) of 28.7%, a mortality at 4 µg/mL (Aleurodicus dispersus [16]) of 60.5% and a mortality at 8 µg/mL (Aleurodicus dispersus [17]) of 42.3%. It also gave a mortality at 4 µg/mL (Aleurodicus dispersus [18]) of 37.6%, a mortality at 8 µg/mL (Aleurodicus dispersus [19]) of 29.4% and a mortality at 2 µg/mL (Aleurodicus dispersus [20]) of 50.9%. The mortality at 10 µg/mL (Aleurodicus dispersus [21]) was 47.8%, the mortality at 4 µg/mL (Aleurodicus dispersus [22]) was 34.1% and the mortality at 2 µg/mL (Aleurodicus dispersus [23]) was 20.9%. It also gave a mortality at 4 µg/mL (Aleurodicus dispersus [24]) of 34.1%, an Activity (Beauveria bassiana [25]) of 3.1% and a mortality at 8 µg/mL (Aleurodicus dispersus [26]) of 80.6%. For the same compound, the mortality at 8 µg/mL (Aleurodicus dispersus [27]) was 63.7% and the mortality at 40 µg/mL (Aleurodicus dispersus [28]) was 60.3%.
